# Entries after “also recorded” stand apart in the source; their conditions may differ. Where a name gives a salt, the structure may show the parent alone.
# Experiments:
# mice [1] = assay: CNS-activity and acute toxicity test; conditions: mice, intraperitoneal
# Experimental: (§1) Adult male NMRI mice (3 months old, weighing 35–40 g) from Janvier labs (Le Genest-Saint-Isle, France) were used to perform experiments. Mice were housed by ten in standard polycarbonate cages in standard controlled conditions (22 ± 2°C, 55 ± 10% humidity) with a reversed 12 h light/dark cycle (light on at 7 pm). Food and water were available ad libitum in the home cage.
# (§2) The approximate DL50 of the compounds were also calculated through the quantification of mortality after 24 h. Amphetamine (2 mg/kg), chlorpromazine (10 mg/kg) were used as a stimulant and depressive references, respectively.
# (§3) Amphetamine, (+)-α-Methylphenethylamine hemisulfate, chlorpromazine hydrochloride, imipramine hydrochloride and scopolamine hydrobromide were purchased from Sigma (France). All those pharmacological compounds were dissolved in NaCl 0.9% as the vehicle were administered IP 30 min before tests, except scopolamine which was subcutaneously administered 20 min before spontaneous alternation test.
# (h)5-HT4(a)R = target: T1, (h)5-HT4(a)R (Homo sapiens, UniProt Q13639); assay: 5-HT4R-induced cAMP production in transfected COS-7 cells; format: cell-based
# T1 construct: HA; expressed in transfected cells; host or cells: COS-7 cells, transient electroporation
# Experimental: (§4) COS-7 cells were grown in Dulbecco’s modified Eagle medium (DMEM) supplemented with 10% dialyzed fetal calf serum (dFCS) and antibiotics. Cells were transiently transfected by electroporation with plasmids encoding HA-tagged 5-HT4R (100 ng/10^6 cells) or HA-tagged 5-HT6R (70 ng/10^6 cells or 300 ng/10^6 cells), then seeded in 96-well plates (16,000 cells/well).
# After 10 min, cells were then lysed by addition of the same volume of Triton-X100 (0.1%).
# (§5) Quantification of cAMP production was performed by HTRF® by using the cAMP Dynamic kit (Cisbio Bioassays) according to the manufacturer’s instructions.
# Human 5-HT4R = target: T2, Human 5-HT4R (Homo sapiens, UniProt Q13639); assay: [3H]-GR113808 competition binding on 5-HT4(b) membrane preparations; conditions: (h)5-HT4R Ki, n = 3; Ki ± SD
# T2 construct: purchased Eurofins HTS110M
# Experimental: At the end of the incubation, homogenates were filtered through Whatman GF/C filters (Alpha Biotech) presoaked with 0.5% polyethylenimine using a Brandel cell harvester. Filters were subsequently washed three times with 1 mL of ice-cold 25 mM Tris buffer (pH 7.4, 4°C). Non-specific binding was evaluated in parallel in the presence of 30 μM serotonin.
# (§6) For some of these compounds, affinity constants were calculated from five-point inhibition curves using the GraphPad Prism 6 software and expressed as Ki ± SD.
# [2] = CNS-activity and acute toxicity test; conditions: male, NMRI, mouse, in vivo, ip
# Experimental: as §1, §2, §3
# human 5-HT6 receptors = target: T3, human 5-HT6 receptors (Homo sapiens, UniProt P50406); assay: [3H]-LSD competition binding on membranes of HEK-293 cells expressing human 5-HT6 receptors
# T3 construct: purchased Perkin Elmer RBHS6M; host or cells: HEK-293 cells, transient expression (membranes)
# Experimental: Drugs were evaluated through their possibility to compete for the binding of [^3H]-LSD on membranes of HEK-293 cells transiently expressing the human 5-HT6 receptors (ref. RBHS6M, Perkin Elmer). […] At the end of the incubation, the homogenates were then filtered through Whatman GF/C filters and washed five times with ice-cold 25 mM Tris-HCl buffer. Non-specific binding was evaluated in the presence of 100 μM serotonin. Radioactivity associated to proteins was then quantified and expressed as the percentage of inhibition of the drugs under study.
# as §6
# [3] = target: T4, AChE from human erythrocytes (Homo sapiens, UniProt P22303); assay: biochemical; conditions: n = 2; read-out: (h)AChE IC50
# T4 construct: AChE from human erythrocytes; purchased Sigma Aldrich; host or cells: human erythrocytes (natural source)
# Experimental: Acetylthiocholine iodide and 5,5-dithiobis-(2-nitrobenzoic) acid (DTNB) were purchased from Sigma Aldrich. AChE from human erythrocytes (buffered aqueous solution, ≥500 units/mg protein (BCA), Sigma Aldrich) was diluted in 20 mM HEPES buffer pH 8, 0.1% Triton X-100 such as to have enzyme solution with 0.25 unit/mL enzyme activity. In the procedure, 100 μL of 0.3 mM DTNB dissolved in phosphate buffer pH 7.4 was added into the 96-well plate followed by 50 μL of test compound solution and 50 μL of enzyme (0.05 U final). After 5 min of preincubation at 25°C, the reaction was then initiated by the injection of 50 μL of 10 mM acetylthiocholine iodide solution. […] Assays were performed with a blank containing all components except acetylthiocholine, in order to account for non-enzymatic reaction. The reaction slopes were compared and the percent inhibition due to the presence of test compounds was calculated by the following expression: 100 − (vi/v0 × 100) where vi is the rate calculated in the presence of inhibitor and v0 is the enzyme activity.
# mice [4] = assay: Spatial working memory: scopolamine-induced deficit of spontaneous alternation in the Y maze; format: in vivo, NMRI mice; conditions: IP 30 min before test, 0.3, 1, 3 mg/kg, scopolamine 0.5 mg/kg SC, effect at doses starting from 0.3 mg/kg
# Experimental: as §1
# An arm entry was scored when all four feet crossed into the arm. An alternation was defined as entries into all three arms on a consecutive occasion.
# as §3
# mice [5] = assay: Locomotor activity (actimeter); format: in vivo; conditions: IP 30 min before test, 1, 3 and 10 mg/kg, 30 min recording
# Experimental: as §1, §3
# (h)5-HT6R [6] = target: T5, (h)5-HT6R (Homo sapiens, UniProt P50406); assay: Reversion of the basal 5-HT6R-induced cAMP production (constitutive activity) in COS-7 cells; format: cell-based; conditions: for cAMP production in the absence of agonist (inverse agonist activity): 10^−4M, absence of 5-HT; for (h)5-HT6R Profile: cAMP
# T5 construct: HA; expressed in transfected cells; host or cells: COS-7 cells, transient electroporation
# Experimental: as §4
# Reversion of the basal 5-HT6R-induced cAMP production: the 5-HT6R expression was augmented by transfection of higher quantities of cDNA (300 ng/10^6 cells) to increase the basal cAMP production linked to the constitutive activity of the receptor. […] This experiment is performed in the absence of 5-HT. After 10 min at 37°C, cells were then lysed by addition of 100 μL of Triton-X100 (0.1%).
# as §5
# (h)5-HT6R [7] = target: T5, (h)5-HT6R; assay: Blockade of the 5-HT6R-induced cAMP production in transfected COS-7 cells; format: cell-based; conditions: for (h)5-HT6R % control antagonist response: SB271046 as control 5-HT6R antagonist, n = 2
# Experimental: as §4
# Blockade of the 5-HT6R-induced cAMP production: 24 h after transfection, cells were exposed to the indicated concentrations of 5-HT6R ligands at 37°C in 50 μL of HBS. […] After 10 min at 37°C, cells were then lysed by addition of 100 μL of Triton-X100 (0.1%).
# as §5
# T1 sequence (Q13639 1-387 isoform Q13639-2): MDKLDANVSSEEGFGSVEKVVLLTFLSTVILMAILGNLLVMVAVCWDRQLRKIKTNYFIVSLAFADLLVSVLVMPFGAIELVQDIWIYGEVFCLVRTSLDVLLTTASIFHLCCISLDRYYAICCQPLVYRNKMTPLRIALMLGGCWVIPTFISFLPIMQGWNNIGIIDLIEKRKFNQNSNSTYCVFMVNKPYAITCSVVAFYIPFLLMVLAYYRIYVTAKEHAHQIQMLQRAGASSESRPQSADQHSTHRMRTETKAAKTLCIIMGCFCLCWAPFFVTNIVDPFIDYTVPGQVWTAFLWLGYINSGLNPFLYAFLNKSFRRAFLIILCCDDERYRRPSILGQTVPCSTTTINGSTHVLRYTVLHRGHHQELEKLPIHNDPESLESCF
# T5 sequence (P50406 whole entry): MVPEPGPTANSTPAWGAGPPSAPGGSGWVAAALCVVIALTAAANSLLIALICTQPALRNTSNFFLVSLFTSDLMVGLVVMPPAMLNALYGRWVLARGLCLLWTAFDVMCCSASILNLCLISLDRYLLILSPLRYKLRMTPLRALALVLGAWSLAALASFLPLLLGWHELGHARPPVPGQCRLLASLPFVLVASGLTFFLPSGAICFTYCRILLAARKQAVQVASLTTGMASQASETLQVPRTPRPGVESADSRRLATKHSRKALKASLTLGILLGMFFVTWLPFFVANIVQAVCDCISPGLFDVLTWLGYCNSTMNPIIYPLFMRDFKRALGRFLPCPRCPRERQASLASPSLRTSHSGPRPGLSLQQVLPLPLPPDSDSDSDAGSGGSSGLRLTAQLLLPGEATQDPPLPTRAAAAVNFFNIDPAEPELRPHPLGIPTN
# T3 sequence (P50406 whole entry): as above
# T2 sequence (Q13639 whole entry): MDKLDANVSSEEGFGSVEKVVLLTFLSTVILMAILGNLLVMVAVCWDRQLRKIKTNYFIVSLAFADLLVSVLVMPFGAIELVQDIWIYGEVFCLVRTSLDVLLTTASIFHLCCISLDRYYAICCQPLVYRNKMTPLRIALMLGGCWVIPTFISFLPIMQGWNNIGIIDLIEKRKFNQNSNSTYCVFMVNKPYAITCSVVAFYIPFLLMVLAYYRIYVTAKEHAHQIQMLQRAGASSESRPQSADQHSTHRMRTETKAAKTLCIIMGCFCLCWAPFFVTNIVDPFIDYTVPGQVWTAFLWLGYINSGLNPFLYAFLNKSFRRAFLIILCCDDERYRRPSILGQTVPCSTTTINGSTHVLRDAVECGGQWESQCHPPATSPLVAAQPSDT
# T4 sequence (P22303 other isoform, or with tags, fused parts or gaps): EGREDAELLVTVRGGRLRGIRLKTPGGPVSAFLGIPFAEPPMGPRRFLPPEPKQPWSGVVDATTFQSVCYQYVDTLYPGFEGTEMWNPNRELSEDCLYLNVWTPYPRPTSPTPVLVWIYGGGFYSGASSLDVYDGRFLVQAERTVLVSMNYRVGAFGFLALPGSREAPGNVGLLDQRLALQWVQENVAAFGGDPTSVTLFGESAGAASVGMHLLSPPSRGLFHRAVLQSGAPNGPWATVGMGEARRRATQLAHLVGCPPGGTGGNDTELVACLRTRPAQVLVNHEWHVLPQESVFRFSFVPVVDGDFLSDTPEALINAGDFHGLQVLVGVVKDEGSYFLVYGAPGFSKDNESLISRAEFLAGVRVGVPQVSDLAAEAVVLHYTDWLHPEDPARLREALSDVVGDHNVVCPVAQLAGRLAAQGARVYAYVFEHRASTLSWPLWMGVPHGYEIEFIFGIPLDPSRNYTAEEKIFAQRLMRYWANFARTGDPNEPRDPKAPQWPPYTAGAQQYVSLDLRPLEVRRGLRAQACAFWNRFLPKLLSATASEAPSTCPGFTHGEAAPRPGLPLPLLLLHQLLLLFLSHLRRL
structure (smiles),measurement,setting,value
"C[C@H](N)Cc1ccccc1 [Amphetamine, (+)-α-Methylphenethylamine hemisulfate]",Symptoms (subtoxic doses),"mice [1]; 2 mg/kg, stimulant reference",Hyperactivity; also recorded: Exopthalmy; also recorded: Irritability
"CN(C)CCCN1c2ccccc2Sc2ccc(Cl)cc21 [Chlorpromazine, chlorpromazine hydrochloride]",Symptoms (subtoxic doses),"mice [1]; 10 mg/kg, depressive reference",Hypoactivity; also recorded: Ataxia; also recorded: Sleep
"COc1cc(N)c(Cl)cc1C(=O)CCC1CCN(Cc2cccc(C)c2)CC1.O=C(O)/C=C/C(=O)O [compound 10, 1-(4-Amino-5-chloro-2-methoxyphenyl)-3-(1-(3-methylbenzyl)piperidin-4-yl)propan-1-one fumaric acid salt]",EC50,(h)5-HT4(a)R,20 nM
same,(h)5-HT4(a)R % control agonist response,"(h)5-HT4(a)R; 5-HT as control 5-HT4R agonist, n = 2",59.8 ± 2.5 n = 2%
same,(h)5-HT4(a)R Profile,"(h)5-HT4(a)R; cAMP, COS-7 cells",Partial agonist
same,Ki,Human 5-HT4R,210 ± 43 nM
same,LD50 at 24 h,[2],> 100 mg/kg
same,Symptoms (subtoxic doses),mice [1]; 1–10–100 mg/kg,did not show any deleterious signs; also recorded: No symptoms
same,Ki,"human 5-HT6 receptors; (h)5-HT6R Ki, n = 3, Ki ± SD",219 ± 42 nM
same,IC50,[3],33.7 ± 1.7 nM
same,Effect on scopolamine-induced spontaneous alternation deficit,mice [4],anti-amnesic effect was observed
same,Effect on spontaneous locomotor activity,mice [5],did neither modify spontaneous locomotor activity
same,cAMP production in the absence of agonist (inverse agonist activity),(h)5-HT6R [6],decreased cAMP production below the basal
same,(h)5-HT6R Profile,(h)5-HT6R [6],Inverse agonist
same,IC50,(h)5-HT6R [7],10 µM
same,(h)5-HT6R % control antagonist response,(h)5-HT6R [7],93.4 ± 1.8 n = 2%
"Fc1ccc2c(CCNCc3cccc(OCC(F)(F)C(F)F)c3)c[nH]c2c1 [compound 2, idalopirdine, reference compound]",inhibition,"human 5-HT6 receptors; read-out: (h)5-HT6R % inhibition at 10^−8M, 10^−8M, 2.5 nM [3H]-LSD",88%
same,cAMP production in the absence of agonist (inverse agonist activity),(h)5-HT6R [6],decreased cAMP production below the basal
same,(h)5-HT6R Profile,(h)5-HT6R [6],Inverse agonist
same,(h)5-HT6R % control antagonist response,(h)5-HT6R [7],101.2 ± 3.2 n = 2%
